# “Also recorded” adds a separate entry of the source. Where no end group is shown, it is not given here. The star is where a group is joined. Biotin = O=C1N[C@H]2[C@H](CS[C@H]2CCCCC(=O)*)N1
# T1: NKG2D (Homo sapiens, UniProt P26718)
# T1 construct: the extracellular lectin-type domain was fused at the N-terminus with a human IgG1 Fc domain; purchased R&D Systems, Inc., Minneapolis, MN
# T1 sequence (P26718 73-216 limits assumed): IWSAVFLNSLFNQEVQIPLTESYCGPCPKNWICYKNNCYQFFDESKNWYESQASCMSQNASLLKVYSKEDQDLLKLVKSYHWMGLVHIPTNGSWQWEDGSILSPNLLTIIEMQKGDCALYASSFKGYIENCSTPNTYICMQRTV
# T2: recombinant human NKG2D, Fc chimera (human, UniProt P26718 73-216)
# T2 construct: NKG2D, human, extracellular lectin-type domain; Type II transmembrane protein; source: bought: R&D Systems; not shown: Fc (human IgG1), N-terminal, kept
# T2 sequence (looked up): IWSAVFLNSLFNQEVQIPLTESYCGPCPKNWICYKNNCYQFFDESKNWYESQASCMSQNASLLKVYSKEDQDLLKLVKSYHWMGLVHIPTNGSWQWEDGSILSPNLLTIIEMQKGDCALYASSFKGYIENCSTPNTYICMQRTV
# B1: svH1C, biotin-tagged tetravalent peptide [(…)2K]2K-ε-biotinyl-K-NH2 (peptide)
# chain 1: NPSHPLSGGGGS
# chain 2: KKKK(Biotin)-NH2
# modifications: also: tetravalent branched: four NPSHPLSGGGGS arms on tri-lysine core joined by peptide and iso-peptide bonds
# B2: fetal bovine fetuin (natural protein, UniProt P12763 19-359, looked up)
# chain: IPLDPVAGYKEPACDDPDTEQAALAAVDYINKHLPRGYKHTLNQIDSVKVWPRRPTGEVYDIEIDTLETTCHVLDPTPLANCSVRQQTQHAVEGDCDIHVLKQDGQFSVLFTKCDSSPDSAEDVRKLCPDCPLLAPLNDSRVVHAVEVALATFNAESNGSYLQLVEISRAQFVPLPVSVSVEFAVAATDCIAKEVVDPTKCNLLAEKQYGFCKGSVIQKALGGEDVRVTCTLFQTQPVIPQPQPDGAEAEAPSAVPDAAGPTPSAAGPPVASVVVGPSVVAVPLPLHRAHYDLRHTFSGVASVESSSGEAFHVGKTPIVGQPSIPGGPVRLCPGRIRYFKI
# modifications: three N-linked and three O-linked glycans per molecule, with termini Neu5Ac(α2,3)Gal or Neu5Ac(α2,6)Gal
# notes: fetuin, fetal bovine; source: bought: Calbiochem, EMD Chemicals (purity, 88%)
# B3: MIC-A/B: native in vivo ligands for NKG2D; major histocompatibility complex class I homologs (protein, UniProt Q29983 24-383; Q29980 23-383, looked up)
# MHC class I … 1: EPHSLRYNLTVLSWDGSVQSGFLTEVHLDGQPFLRCDRQKCRAKPQGQWAEDVLGNKTWDRETRDLTGNGKDLRMTLAHIKDQKEGLHSLQEIRVCEIHEDNSTRSSQHFYYDGELFLSQNLETKEWTMPQSSRAQTLAMNVRNFLKEDAMKTKTHYHAMHADCLQELRRYLKSGVVLRRTVPPMVNVTRSEASEGNITVTCRASGFYPWNITLSWRQDGVSLSHDTQQWGDVLPDGNGTYQTWVATRICQGEEQRFTCYMEHSGNHSTHPVPSGKVLVLQSHWQTFHVSAVAAAAIFVIIIFYVRCCKKKTSAAEGPELVSLQVLDQHPVGTSDHRDATQLGFQPLMSDLGSTGSTEGA
# MHC class I … 2: AEPHSLRYNLMVLSQDGSVQSGFLAEGHLDGQPFLRYDRQKRRAKPQGQWAENVLGAKTWDTETEDLTENGQDLRRTLTHIKDQKGGLHSLQEIRVCEIHEDSSTRGSRHFYYDGELFLSQNLETQESTVPQSSRAQTLAMNVTNFWKEDAMKTKTHYRAMQADCLQKLQRYLKSGVAIRRTVPPMVNVTCSEVSEGNITVTCRASSFYPRNITLTWRQDGVSLSHNTQQWGDVLPDGNGTYQTWVATRIRQGEEQRFTCYMEHSGNHGTHPVPSGKALVLQSQRTDFPYVSAAMPCFVIIIILCVPCCKKKTSAAEGPELVSLQVLDQHPVGTGDHRDAAQLGFQPLMSATGSTGSTEGT
# Assays:
# [1] = test system: Siglec-2; conditions: ref Kelm et al. [68], cited from earlier work
# Excerpt: Most siglecs are inhibitory receptors containing an ITIM [9–12] and express full activity when a ligand is bound. As documented with Siglec-2 on B cells, a functional ligand binding site is required for tyrosine phosphorylation, recruitment of the phosphatase SHP-1, and inhibition of B cell activation.
# [2] = test system: siglecs; experiment: solid-phase binding of biotinylated tetravalent peptides to siglecs; parameters: species or system human; conditions: biotinylated peptides 2 μM
# Procedure: (§1) Isothermal microcalorimetry was performed by TA Instruments Professional Services (New Castle, DE) by titrating 10 μM NKG2D (monomer concentration) (R&D Systems, Inc., Minneapolis, MN) with 100 μM svH1C in 50 mM Tris-HCl, pH 7.5, 150 mM NaCl, 0.1 mM EDTA. Recombinant human receptors were obtained from R&D Systems as chimeric proteins. NKG2D is a type II transmembrane protein and the extracellular lectin-type domain was fused at the N-terminus with a human IgG1 Fc domain. Recombinant siglecs contained a C-terminal IgG1 Fc domain or a His6–10 tag. The lyophilized proteins were reconstituted in phosphate-buffered saline, pH 7.2 (PBS), to 100 μg/mL. The Fc-chimeric proteins were bound to protein A/G-coated wells of microtiter plates (Pierce Biotechnology). His-tagged proteins were bound in Nickel-coated plates (Pierce Biotechnology). Sufficient proteins were added to wells to saturate the binding capacity of the wells. After a wash to remove unbound receptor, wells were blocked with 1% gelatin in wash buffer. Wash buffers were either 10 mM phosphate, pH 7.2; 10 mM HEPES, pH 7.4; or 50 mM Tris-HCl, pH.7.5, each in 150 mM NaCl containing 0.05% Tween-20. Biotinylated peptides were prepared as 2 μM solutions in the wash buffer and 50 μL (100 pmoles) were added to each well and incubated at room temperature for one hour. After four washes with 350 μL buffer containing 0.05% Tween-20, each assay was incubated with 50 μL of 1 μg/mL streptavidin-peroxidase (Sigma-Aldrich, St. Louis, MO). […] Absorbance was measured at 450 nm and converted to the amount of streptavidin-peroxidase bound with the specific activity of the conjugate determined under the conditions of the assay. […]
# MAA is a mixture of M. amurensis leukoagglutinin (MAL) and M. amurensis hemagglutinin (MAH), both of which along with SNA1 bind preferentially to terminal Neu5Ac-Gal- sequences on complex glycans. Binding of the peptide to several lectins specific for monosaccharides was not detected. […]
# [3] = test system: lectins that bind monosaccharides; conditions: Neu5Ac, Gal, GalNAc or fucose lectins; ref [29],[30]; cited from earlier work
# Excerpt: We initially identified several sequences of amino acids that bound to specific plant lectins by screening phage display libraries. Sequences were further refined by in silico modeling of docking of a peptide into the sugar binding site of the crystal structures of lectins. These studies predicted that several short peptide sequences, 5 to 8 amino acids in length, would have significant affinity to lectins chosen as analogs of cell-surface receptors. […] MAA is a mixture of M. amurensis leukoagglutinin (MAL) and M. amurensis hemagglutinin (MAH), both of which along with SNA1 bind preferentially to terminal Neu5Ac-Gal- sequences on complex glycans. Binding of the peptide to several lectins specific for monosaccharides was not detected. We then assayed binding of svH1C to several siglecs, which comprise a family of cell-surface receptors that are specific for Neu5Ac-Gal/GalNAc- sequ ...
# [4] = target: CD45 (Homo sapiens) (UniProt P08575); conditions: cited from earlier work
# [5] = test system: plant lectins; conditions: ref [29]; cited from earlier work
# Excerpt: NKG2D is a homodimeric, type II receptor whose recognized ligands are cell-surface proteins MICA and MICB, which are major histocompatibility complex class I homologs. Other polypeptide ligands include ULBP, Rae-1 and H60 [26]. Extensive studies of binding of MICA and MICB [24–26] have shown that each homodimer binds a single ligand at the interface of the subunits. Each subunit of NKG2D also contains a lectin domain that binds glycans with specificity for Neu5Ac(α2,3)Gal. […] Binding was inhibited by fet ...
# [6] = test system: siglecs; experiment: inhibition of binding of svH1C to siglecs; parameters: species or system human; conditions: fetuin 10 μM or 30 μM; average of single values in two assays
# Procedure: as §1, with “buffer.” for “buffer. Wash buffers were either 10 mM phosphate, pH 7.2; 10 mM HEPES, pH 7.4; or 50 mM Tris-HCl, pH.7.5, each in 150 mM NaCl containing 0.05% Tween-20. Biotinylated peptides were prepared as 2 μM solutions in the wash buffer and 50 μL (100 pmoles) were added to each well and incubated at room temperature for one hour. After four washes with 350 μL buffer containing 0.05% Tween-20, each assay was incubated with 50 μL of 1 μg/mL streptavidin-peroxidase (Sigma-Aldrich, St. Louis, MO).”
# Fig 3 Binding of svH1C to lectin-type receptors. […] SEM was determined for six assays from four independent experiments. […]
# [7] = target: T1, NKG2D; experiment: inhibition of binding of svH1C to NKG2D; conditions: added with 2 μM svH1C; PBS/0.05% Tween-20; average of single values from three separate assays; fetuin 5, 10, 30 μM; sialyllactose 12, 20, 40 μM
# Procedure: as §1, with “buffer.” for “buffer. Wash buffers were either 10 mM phosphate, pH 7.2; 10 mM HEPES, pH 7.4; or 50 mM Tris-HCl, pH.7.5, each in 150 mM NaCl containing 0.05% Tween-20. Biotinylated peptides were prepared as 2 μM solutions in the wash buffer and 50 μL (100 pmoles) were added to each well and incubated at room temperature for one hour. After four washes with 350 μL buffer containing 0.05% Tween-20, each assay was incubated with 50 μL of 1 μg/mL streptavidin-peroxidase (Sigma-Aldrich, St. Louis, MO).”
# Fig 4 Binding of svH1C to NKG2D. (A) The amount of bound peptide was measured after extensive washing with PBS containing 0.05% Tween-20. […]
# [8] = target: T2, recombinant human NKG2D, Fc chimera; experiment: ELISA; inhibition: fetuin (5, 10 or 30 μM) added along with 2 μM biotinylated svH1C to immobilised receptor; PBS with 0.05% Tween-20
# [9] = target: NKG2D; conditions: approximately; ref [24]–[26]; cited from earlier work
# Procedure: NKG2D lacks a signaling motif in its cytoplasmic domain and functions as an activating receptor in association with adaptor proteins, DAP10 and DAP12 [75]. In addition to NKG2D, NK cells express other activating cytotoxicity receptors such as NKp30, NKp44 and NKp46. These receptors bind to tandemly multivalent heparan sulfate/heparin sequences with KD values of 0.3 to 2 μM [76]. Similarly to NKG2D, NKp46 also binds multivalent sialyl-Lewis^X with a KD of approximately 0.6 μM [77]. The native in vivo ligands for NKG2D are divergent proteins, MIC-A/B, ULBP, Rae-1 or H60, which bind the rec ...
# CD45 (Homo sapiens), sequence (P08575 26-577): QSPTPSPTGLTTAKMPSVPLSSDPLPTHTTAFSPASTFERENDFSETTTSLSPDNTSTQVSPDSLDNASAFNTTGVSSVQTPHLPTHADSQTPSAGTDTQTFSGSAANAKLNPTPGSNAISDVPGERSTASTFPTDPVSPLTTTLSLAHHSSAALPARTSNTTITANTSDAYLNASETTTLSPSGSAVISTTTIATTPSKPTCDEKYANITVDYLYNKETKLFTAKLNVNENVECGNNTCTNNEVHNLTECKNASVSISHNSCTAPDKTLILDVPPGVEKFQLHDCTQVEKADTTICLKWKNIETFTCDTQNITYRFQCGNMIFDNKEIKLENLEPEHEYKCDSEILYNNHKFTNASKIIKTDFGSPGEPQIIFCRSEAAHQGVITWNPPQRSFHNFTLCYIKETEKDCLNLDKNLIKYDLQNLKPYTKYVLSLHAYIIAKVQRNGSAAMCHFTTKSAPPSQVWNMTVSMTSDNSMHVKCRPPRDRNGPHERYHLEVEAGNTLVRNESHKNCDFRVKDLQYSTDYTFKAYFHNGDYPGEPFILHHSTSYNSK
molecule,measurement,setting,value
CO[C@]1(C(=O)O)C[C@H](O)[C@@H](NC(C)=O)[C@H]([C@H](O)[C@H](O)CNC(=O)c2ccc(-c3ccccc3)cc2)O1 [BPC-Neu5Ac],IC50,[1]; after cells were treated with neuraminidase,4 µM
same,tyrosine phosphorylation and inhibitory activity of Siglec-2,[1],reduced tyrosine phosphorylation and attenuated the receptor’s inhibitory activity
HPSLK [sv6B],binding of biotinylated tetravalent peptides to siglecs,[2],also bound to siglecs
same,"avidity to lectins that bind monosaccharides, relative to natural ligands",[3],several orders of magnitude greater than their natural ligands
Siglec-2 (CD22) (from UniProt P20273),Kd,[4],117 µM
"[(VGGGSGGGS)2K]2K-ε-biotinyl-K-NH2 [peptide used as a negative control, reference compound]",binding of biotinylated tetravalent peptides to siglecs,[2],no binding
digestion of fetuin with neuraminidase: fetuin digested with neuraminidase,competition with svH1C for binding to plant lectins,[5],nearly eliminated its ability to inhibit binding
"fetuin: fetal bovine fetuin (purity, 88%; cat. no. 341506, Calbiochem)",inhibition of binding of svH1C to siglecs by fetuin,[6],inhibited; also recorded: as effective an inhibitor of binding of svH1C to NKG2D as it was of the binding of the peptide to siglecs
same,competition with svH1C for binding to plant lectins,[5],effectively competed
sialyllactose [reference compound],IC50,[7],~18 µM
B1,binding constant estimated from the inhibition by fetuin,[8],1 µM
same,"streptavidin-peroxidase conjugate bound (average 100% value, without inhibitor)",[8],2.4 ng
B2,IC50,[8]; both partners purified,~3 µM
B3,Kd,[9],~1 µM
